Values quoted from earlier work as cited in patent publication US7422908B2, “Chemiluminescent 1,2-dioxetanes” (priority 2002, dated 2008).

Tests used:
[1] = thermal decomposition
[2] = compared with 1,2-dioxetanes (14) and (15); CH3 group replaced with CH2CH2CH2COOH

Row | SMILES | decomposes at (temperature) [1] | solubility in an aqueous system [2]
1 | C1C2CC3CC1CC(C2)C31OOC12C1CC3CC(C1)CC2C3 (centres unmarked) [Dioxetane 5] | 150 °C | –
2 | O=C(O)CCCOC1(c2cccc(OP(=O)(O)O)c2)OOC12C1CC3CC(C1)CC2C3 (centres unmarked) [Dioxetane 16] | – | more soluble in an aqueous system than 1,2-dioxetane (14) and (15)
